{
  "source": "patent US6319702A",
  "about": "“Nucleic acids encoding mutant human carboxypeptidase A enzymes” (Glaxo Wellcome, Inc., priority 1993, dated 2001)",
  "key": {"268gly": {"test_system": "268gly", "assay": "Enzyme kinetics of prodrugs with 268gly mutant of human CPA1 (coupled assay)", "format": "biochemical", "method_in_brief": "(§1)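 Coupled spectrophotometric assay: released methotrexate converted by excess carboxypeptidase G (17 milliunits) to its pteroate, followed at 315 nm (Δε 9.57 mM^-1 cm^-1). 25° C in 25 mM tris-HCl, 100 mM NaCl, pH 7.4; reaction started with wild-type or mutant carboxypeptidase A. Kinetic constants from initial velocities by Michaelis-Menten analysis.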"}, "[1]": {"biological_target": "T1, wild type human carboxypeptidase A1 (Homo sapiens, UniProt P15085)", "T1 sequence (P15085 111-419)": "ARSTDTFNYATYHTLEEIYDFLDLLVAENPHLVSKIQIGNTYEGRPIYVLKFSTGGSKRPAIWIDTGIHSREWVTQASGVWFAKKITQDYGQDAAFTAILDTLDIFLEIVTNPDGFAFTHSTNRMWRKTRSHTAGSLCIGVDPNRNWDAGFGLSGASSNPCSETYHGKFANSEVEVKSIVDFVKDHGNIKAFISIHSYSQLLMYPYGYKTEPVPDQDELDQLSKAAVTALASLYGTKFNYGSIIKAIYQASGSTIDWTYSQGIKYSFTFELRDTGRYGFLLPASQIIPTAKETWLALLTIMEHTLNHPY", "assay": "Enzyme kinetics of prodrugs with wild type human carboxypeptidase A1 (coupled assay)", "format": "biochemical", "method_in_brief": "as §1"}, "268ala": {"test_system": "268ala", "assay": "Enzyme kinetics of prodrugs with 268ala mutant of human CPA1 (coupled assay)", "format": "biochemical", "conditions": "25° C., pH 7.4", "method_in_brief": "as §1"}, "[2]": {"conditions": "mouse, in vivo, iv"}, "mutant enzyme": {"test_system": "mutant enzyme", "assay": "Substrate behaviour with mutant enzyme", "format": "biochemical, human", "excerpt": "This type of compound is not useful for ADEPT."}, "in vivo": {"assay": "in vivo", "conditions": "mouse, iv"}, "[3]": {"assay": "Stability and biodistribution of prodrugs in vivo (HPLC of plasma and tissues)", "set-up": "species or system mice (CD-1 nude; BALB/C where indicated)"}},
  "note": "Where two headings read alike, the source gives them in different places.",
  "data": [
    {"molecule": "CN(Cc1cnc2nc(N)nc(N)c2n1)c1ccc(C(=O)N[C@@H](CCC(=O)O)C(=O)N[C@@H](Cc2ccc(O)c(C3CCCC3)c2)C(=O)O)cc1", "note": "[Prodrug 13, N-(4-(((2,4-diamino-6-pteridinyl)methyl)methyamino)benzoyl)-L-glutam-1-yl-3-cyclopentyl-L-tyrosine]", "values": [
      {"measurement": "kcat/Km", "setting": "268gly; 268Gly", "value": 0.18, "unit": "µM⁻¹ s⁻¹"},
      {"measurement": "Km", "setting": "268gly; 268gly, 25° C., pH 7.4", "value": 18, "unit": "µM"},
      {"measurement": "kcat", "setting": "268gly; 268gly, 25° C., pH 7.4", "value": 3, "unit": "s⁻¹"},
      {"measurement": "human CPA catalyzed reaction (in words)", "setting": "[1]", "value": "not measureable"},
      {"measurement": "kcat/Km for human CPA1 compared with that of the L-phenylalanine prodrug (in words)", "setting": "[1]", "value": "much lower"},
      {"measurement": "substrate for wild type CPA (in words)", "setting": "[1]", "value": "not for the wild type enzyme"},
      {"measurement": "kcat (symbol ND)", "setting": "[1]; Human CPA1, rate too slow to assay", "value": "ND (not determined; rate to slow assay. kcat ≤ 0.0005/sec.)"},
      {"measurement": "Km", "setting": "268ala", "value": 50, "unit": "µM"},
      {"measurement": "kcat", "setting": "268ala", "value": 0.0006, "unit": "s⁻¹"},
      {"measurement": "maximum tolerated dose (MTD)", "setting": "[2]", "value": "> 50", "unit": "mg/kg"},
      {"measurement": "substrate for a mutant enzyme (in words)", "setting": "mutant enzyme", "value": "good substrates for a mutant enzyme"},
      {"measurement": "MTD", "setting": "in vivo", "value": "≥ 50", "unit": "mg/kg"},
      {"measurement": "concentration of prodrug in cecum", "setting": "[3]; CECUM, 30 min, 50 mg/kg i.p. or i.v., CD-1 nude mice", "value": 14.4, "unit": "nmol/g"},
      {"measurement": "concentration of prodrug in cecum", "setting": "[3]; CECUM, 120 min, 50 mg/kg i.p. or i.v., CD-1 nude mice", "value": 4.8, "unit": "nmol/g"},
      {"measurement": "concentration of prodrug in feces", "setting": "[3]; FECES, 30 min, 50 mg/kg i.p. or i.v., CD-1 nude mice", "value": 665.8, "unit": "nmol/g"},
      {"measurement": "concentration of prodrug in feces", "setting": "[3]; FECES, 120 min, 50 mg/kg i.p. or i.v., CD-1 nude mice", "value": 738.4, "unit": "nmol/g"},
      {"measurement": "concentration of prodrug in kidney", "setting": "[3]; KIDNEY, 30 min, 50 mg/kg i.p. or i.v., CD-1 nude mice", "value": 3.7, "unit": "nmol/g"},
      {"measurement": "concentration of prodrug in kidney", "setting": "[3]; KIDNEY, 120 min, 50 mg/kg i.p. or i.v., CD-1 nude mice", "value": 0.5, "unit": "nmol/g"},
      {"measurement": "concentration of prodrug in large intestine", "setting": "[3]; LARGE INTESTINE, 30 min, 50 mg/kg i.p. or i.v., CD-1 nude mice", "value": 7.9, "unit": "nmol/g"},
      {"measurement": "concentration of prodrug in large intestine", "setting": "[3]; LARGE INTESTINE, 120 min, 50 mg/kg i.p. or i.v., CD-1 nude mice", "value": 12.5, "unit": "nmol/g"},
      {"measurement": "concentration of prodrug in liver", "setting": "[3]; LIVER, 30 min, 50 mg/kg i.p. or i.v., CD-1 nude mice", "value": 47.7, "unit": "nmol/g"},
      {"measurement": "concentration of prodrug in liver", "setting": "[3]; LIVER, 120 min, 50 mg/kg i.p. or i.v., CD-1 nude mice", "value": 129.0, "unit": "nmol/g"},
      {"measurement": "concentration of prodrug in small intestine", "setting": "[3]; SMALL INTESTINE, 30 min, 50 mg/kg i.p. or i.v., CD-1 nude mice", "value": 373.7, "unit": "nmol/g"},
      {"measurement": "concentration of prodrug in small intestine", "setting": "[3]; SMALL INTESTINE, 120 min, 50 mg/kg i.p. or i.v., CD-1 nude mice", "value": 322.1, "unit": "nmol/g"},
      {"measurement": "concentration of prodrug in spleen", "setting": "[3]; SPLEEN, 30 min, 50 mg/kg i.p. or i.v., CD-1 nude mice", "value": 0.6, "unit": "nmol/g"},
      {"measurement": "concentration of prodrug in spleen", "setting": "[3]; SPLEEN, 120 min, 50 mg/kg i.p. or i.v., CD-1 nude mice", "value": 0.2, "unit": "nmol/g"},
      {"measurement": "stability in vivo (in words)", "setting": "[3]; mice, 50 mg/kg", "value": "stable in vivo"},
      {"measurement": "remaining at 0.5 h", "setting": "[3]; mouse, cecum, 50 mg/kg, CECUM, 30 min, 50 mg/kg i.p. or i.v., CD-1 nude mice, read-out: stability: percentage of material observed as intact prodrug, cecum", "value": 100, "unit": "%"},
      {"measurement": "remaining at 2 h", "setting": "[3]; mouse, cecum, 50 mg/kg, CECUM, 120 min, 50 mg/kg i.p. or i.v., CD-1 nude mice, read-out: stability: percentage of material observed as intact prodrug, cecum", "value": 100, "unit": "%"},
      {"measurement": "remaining at 0.5 h", "setting": "[3]; mouse, feces, 50 mg/kg, FECES, 30 min, 50 mg/kg i.p. or i.v., CD-1 nude mice, read-out: stability: percentage of material observed as intact prodrug, feces (converted)", "value": 100, "unit": "%"},
      {"measurement": "remaining at 2 h", "setting": "[3]; mouse, feces, 50 mg/kg, FECES, 120 min, 50 mg/kg i.p. or i.v., CD-1 nude mice, read-out: stability: percentage of material observed as intact prodrug, feces", "value": 100, "unit": "%"},
      {"measurement": "remaining at 0.5 h", "setting": "[3]; mouse, kidney, 50 mg/kg, KIDNEY, 30 min, 50 mg/kg i.p. or i.v., CD-1 nude mice, read-out: stability: percentage of material observed as intact prodrug, kidney", "value": 100, "unit": "%"},
      {"measurement": "remaining at 2 h", "setting": "[3]; mouse, kidney, 50 mg/kg, KIDNEY, 120 min, 50 mg/kg i.p. or i.v., CD-1 nude mice, read-out: stability: percentage of material observed as intact prodrug, kidney", "value": 100, "unit": "%"},
      {"measurement": "remaining at 0.5 h", "setting": "[3]; mouse, large intestine, 50 mg/kg, LARGE INTESTINE, 30 min, 50 mg/kg i.p. or i.v., CD-1 nude mice, read-out: stability: percentage of material observed as intact prodrug, large intestine", "value": 100, "unit": "%"},
      {"measurement": "remaining at 2 h", "setting": "[3]; mouse, large intestine, 50 mg/kg, LARGE INTESTINE, 120 min, 50 mg/kg i.p. or i.v., CD-1 nude mice, read-out: stability: percentage of material observed as intact prodrug, large intestine", "value": 100, "unit": "%"},
      {"measurement": "remaining at 0.5 h", "setting": "[3]; mouse, liver, 50 mg/kg, LIVER, 30 min, 50 mg/kg i.p. or i.v., CD-1 nude mice, read-out: stability: percentage of material observed as intact prodrug, liver (converted)", "value": 100, "unit": "%"},
      {"measurement": "remaining at 2 h", "setting": "[3]; mouse, liver, 50 mg/kg, LIVER, 120 min, 50 mg/kg i.p. or i.v., CD-1 nude mice, read-out: stability: percentage of material observed as intact prodrug, liver", "value": 100, "unit": "%"},
      {"measurement": "concentration at 0.5 h", "setting": "[3]; mouse, plasma, 50 mg/kg, PLASMA, 30 min, 50 mg/kg i.p. or i.v., CD-1 nude mice, read-out: concentration of prodrug in plasma", "value": 3.3, "unit": "µM"},
      {"measurement": "remaining at 0.5 h", "setting": "[3]; mouse, plasma, 50 mg/kg, PLASMA, 30 min, 50 mg/kg i.p. or i.v., CD-1 nude mice, read-out: stability: percentage of material observed as intact prodrug, plasma", "value": 100, "unit": "%"},
      {"measurement": "concentration at 2 h", "setting": "[3]; mouse, plasma, 50 mg/kg, PLASMA, 120 min, 50 mg/kg i.p. or i.v., CD-1 nude mice, read-out: concentration of prodrug in plasma", "value": 600, "unit": "nM"},
      {"measurement": "remaining at 2 h", "setting": "[3]; mouse, plasma, 50 mg/kg, PLASMA, 120 min, 50 mg/kg i.p. or i.v., CD-1 nude mice, read-out: stability: percentage of material observed as intact prodrug, plasma", "value": 100, "unit": "%"},
      {"measurement": "remaining at 0.5 h", "setting": "[3]; mouse, small intestine, 50 mg/kg, SMALL INTESTINE, 30 min, 50 mg/kg i.p. or i.v., CD-1 nude mice, read-out: stability: percentage of material observed as intact prodrug, small intestine", "value": 100, "unit": "%"},
      {"measurement": "remaining at 2 h", "setting": "[3]; mouse, small intestine, 50 mg/kg, SMALL INTESTINE, 120 min, 50 mg/kg i.p. or i.v., CD-1 nude mice, read-out: stability: percentage of material observed as intact prodrug, small intestine", "value": 100, "unit": "%"},
      {"measurement": "remaining at 0.5 h", "setting": "[3]; mouse, spleen, 50 mg/kg, SPLEEN, 30 min, 50 mg/kg i.p. or i.v., CD-1 nude mice, read-out: stability: percentage of material observed as intact prodrug, spleen", "value": 100, "unit": "%"},
      {"measurement": "remaining at 2 h", "setting": "[3]; mouse, spleen, 50 mg/kg, SPLEEN, 120 min, 50 mg/kg i.p. or i.v., CD-1 nude mice, read-out: stability: percentage of material observed as intact prodrug, spleen", "value": 100, "unit": "%"}
    ]}
  ]
}
